One test deals with T1, SMARCA2 (Homo sapiens, UniProt P51531).
T1 construct: SMARCA2-HiBiT knock-in Hela monoclonal cell (CS302366); host or cells: HeLa monoclonal cells with heterozygous HiBiT knock-in at the endogenous SMARCA2 locus
The test can be described thus: SMARCA2 HiBiT degradation assay in HeLa cells. Type of test: cell-based. The following applies: 18 hours, highest concentration 10 μM. In outline: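 Degradation was read as Nano-Glo HiBiT lytic luminescence (30-60 min, RT) and fitted to curves. Compounds in 3-fold dilutions up to 10 μM were applied for 18 h at 37 °C. Cells were 2500/well monoclonal HeLa with a heterozygous C-terminal HiBiT tag on SMARCA2.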
In general terms: With HiBiT, luminescence reflects the tagged protein that the partner subunit can reach.

In another test the target is T2, SMARCA4 (Homo sapiens, UniProt P51532).
T2 construct: SMARCA4-HiBiT knock-in Hela monoclonal cell (CS3023226); host or cells: HeLa monoclonal cells with heterozygous HiBiT knock-in at the endogenous SMARCA4 locus
T2 sequence (P51532 whole entry): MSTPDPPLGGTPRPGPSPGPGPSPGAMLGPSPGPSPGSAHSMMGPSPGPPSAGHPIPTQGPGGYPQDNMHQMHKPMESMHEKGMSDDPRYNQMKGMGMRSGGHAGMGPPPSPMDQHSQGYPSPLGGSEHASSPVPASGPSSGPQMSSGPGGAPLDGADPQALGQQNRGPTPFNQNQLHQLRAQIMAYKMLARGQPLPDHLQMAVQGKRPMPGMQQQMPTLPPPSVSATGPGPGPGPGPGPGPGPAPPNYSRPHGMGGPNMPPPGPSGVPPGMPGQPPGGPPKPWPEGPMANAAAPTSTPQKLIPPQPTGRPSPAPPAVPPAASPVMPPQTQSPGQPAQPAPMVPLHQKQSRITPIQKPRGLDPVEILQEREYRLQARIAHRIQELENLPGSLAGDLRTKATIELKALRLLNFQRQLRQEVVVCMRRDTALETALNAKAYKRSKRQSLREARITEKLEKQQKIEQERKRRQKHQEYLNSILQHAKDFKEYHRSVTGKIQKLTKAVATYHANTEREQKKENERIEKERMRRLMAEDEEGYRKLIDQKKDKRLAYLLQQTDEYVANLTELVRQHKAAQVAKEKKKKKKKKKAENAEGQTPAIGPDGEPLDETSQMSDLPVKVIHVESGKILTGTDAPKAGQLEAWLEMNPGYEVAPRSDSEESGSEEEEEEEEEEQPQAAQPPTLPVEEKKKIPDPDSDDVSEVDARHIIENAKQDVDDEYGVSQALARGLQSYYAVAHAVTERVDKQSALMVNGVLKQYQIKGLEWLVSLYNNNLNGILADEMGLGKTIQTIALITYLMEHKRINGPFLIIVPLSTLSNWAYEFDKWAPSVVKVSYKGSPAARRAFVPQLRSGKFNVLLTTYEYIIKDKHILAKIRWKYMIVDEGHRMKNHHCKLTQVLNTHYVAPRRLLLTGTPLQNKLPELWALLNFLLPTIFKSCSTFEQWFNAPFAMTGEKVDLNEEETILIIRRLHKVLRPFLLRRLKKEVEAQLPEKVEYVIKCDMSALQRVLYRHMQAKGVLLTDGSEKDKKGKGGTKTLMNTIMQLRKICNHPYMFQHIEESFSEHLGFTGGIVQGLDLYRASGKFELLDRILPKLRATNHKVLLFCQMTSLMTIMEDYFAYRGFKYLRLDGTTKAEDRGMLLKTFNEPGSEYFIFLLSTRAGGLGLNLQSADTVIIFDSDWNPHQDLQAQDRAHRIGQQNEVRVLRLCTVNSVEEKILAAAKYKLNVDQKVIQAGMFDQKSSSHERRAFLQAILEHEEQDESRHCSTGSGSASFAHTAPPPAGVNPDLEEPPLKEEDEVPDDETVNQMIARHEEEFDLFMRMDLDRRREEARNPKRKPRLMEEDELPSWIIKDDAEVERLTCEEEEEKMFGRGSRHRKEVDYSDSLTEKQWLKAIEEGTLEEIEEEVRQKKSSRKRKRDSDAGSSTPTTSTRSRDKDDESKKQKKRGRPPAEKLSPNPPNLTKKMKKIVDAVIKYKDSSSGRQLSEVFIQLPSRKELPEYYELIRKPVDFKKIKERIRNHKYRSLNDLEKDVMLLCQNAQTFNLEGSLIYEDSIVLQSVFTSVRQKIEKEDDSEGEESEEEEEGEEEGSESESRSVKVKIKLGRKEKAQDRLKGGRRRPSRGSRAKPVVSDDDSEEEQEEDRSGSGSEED
The experiment in a line: SMARCA4 HiBiT degradation assay in HeLa cells. Type of test: cell-based. To be noted: 18 hours, highest concentration 10 μM. The method, boiled down: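 HeLa monoclonal cells with HiBiT knocked into SMARCA4 were seeded at 2500 cells/well, dosed with compound and incubated 18 hours at 37° C. HiBiT signal reported remaining SMARCA4 protein, and values came from curve fitting.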

Test [1] has as its system SMARCA4 mutated cancer cells. The following applies: Vangamudi et al. Cancer Res 2015; cited from earlier work.

T1 sequence (P51531 whole entry): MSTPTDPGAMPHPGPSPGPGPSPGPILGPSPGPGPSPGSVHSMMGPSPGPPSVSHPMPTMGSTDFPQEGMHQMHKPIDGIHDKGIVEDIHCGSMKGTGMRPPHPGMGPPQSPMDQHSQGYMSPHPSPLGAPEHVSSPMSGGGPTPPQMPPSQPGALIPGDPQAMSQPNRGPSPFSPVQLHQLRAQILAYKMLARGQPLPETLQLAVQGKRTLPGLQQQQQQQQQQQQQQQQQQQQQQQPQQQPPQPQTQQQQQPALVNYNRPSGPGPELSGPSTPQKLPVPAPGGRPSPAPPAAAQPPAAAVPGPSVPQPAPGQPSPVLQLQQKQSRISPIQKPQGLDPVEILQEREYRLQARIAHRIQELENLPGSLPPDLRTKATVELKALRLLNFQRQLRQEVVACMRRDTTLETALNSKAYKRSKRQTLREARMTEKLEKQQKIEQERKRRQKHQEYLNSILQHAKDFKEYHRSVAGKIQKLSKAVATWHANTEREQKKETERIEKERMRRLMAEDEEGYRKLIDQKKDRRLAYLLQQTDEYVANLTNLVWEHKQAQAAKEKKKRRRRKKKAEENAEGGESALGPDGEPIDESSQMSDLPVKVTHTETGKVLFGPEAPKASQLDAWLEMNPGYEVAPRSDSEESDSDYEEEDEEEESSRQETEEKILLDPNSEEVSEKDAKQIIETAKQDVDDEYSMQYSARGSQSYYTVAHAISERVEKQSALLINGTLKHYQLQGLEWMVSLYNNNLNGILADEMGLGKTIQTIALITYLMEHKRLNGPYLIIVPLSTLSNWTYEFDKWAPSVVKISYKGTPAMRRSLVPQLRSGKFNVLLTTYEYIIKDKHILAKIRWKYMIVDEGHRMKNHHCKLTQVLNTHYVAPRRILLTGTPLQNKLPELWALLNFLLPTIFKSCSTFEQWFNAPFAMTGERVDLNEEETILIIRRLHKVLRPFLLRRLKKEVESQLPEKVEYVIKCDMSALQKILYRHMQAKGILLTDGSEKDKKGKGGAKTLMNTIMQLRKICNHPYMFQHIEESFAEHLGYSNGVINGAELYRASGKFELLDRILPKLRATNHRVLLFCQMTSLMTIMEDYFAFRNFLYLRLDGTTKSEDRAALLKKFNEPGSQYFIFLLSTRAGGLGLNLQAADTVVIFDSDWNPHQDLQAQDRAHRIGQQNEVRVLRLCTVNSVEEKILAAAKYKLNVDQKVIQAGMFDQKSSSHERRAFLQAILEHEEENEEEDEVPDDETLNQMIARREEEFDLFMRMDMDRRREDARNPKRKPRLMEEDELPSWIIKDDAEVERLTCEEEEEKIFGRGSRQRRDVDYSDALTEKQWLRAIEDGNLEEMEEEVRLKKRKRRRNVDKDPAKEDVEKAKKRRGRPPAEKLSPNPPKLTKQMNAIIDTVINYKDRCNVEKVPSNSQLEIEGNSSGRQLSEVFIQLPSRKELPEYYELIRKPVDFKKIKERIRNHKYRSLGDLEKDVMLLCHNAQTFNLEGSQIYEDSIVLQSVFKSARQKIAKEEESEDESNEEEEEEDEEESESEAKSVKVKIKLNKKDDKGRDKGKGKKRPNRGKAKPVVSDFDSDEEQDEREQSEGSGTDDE

In general, DC50 refers to the concentration at which degradation of the target reaches its halfway point. The term Dmax denotes the greatest extent of degradation seen. High values mean deep degradation, low ones shallow degradation. At SMARCA2, `CC[C@]12CNc3nnc(-c4cccc(C)c4O)cc3N1C[C@H](Oc1cc(C)c(CN3CCC(c4ccc5c(c4)C(=O)N([C@H]4CCC(=O)NC4=O)C5)CC3)cn1)C2` [Example 98, (S)-3-(6-(1-((6-(((6aS,8R)-6a-ethyl-2-(2-hydroxy-3-methylphenyl)-5,6,6a, 7,8,9-hexahydropyrrolo[1′,2′:4,5]pyrazino[2,3-c]pyridazin-8-yl)oxy)-4-methylpyridin-3-yl)methyl)piperidin-4-yl)-1-oxoisoindolin-2-yl)piperidine-2,6-dione] registered a DC50 of less than 100 nM and a Dmax of more than 75%. Besides, at SMARCA4, the DC50 was less than 100 nM and the Dmax is more than 75%.
Turning to `CC[C@]12CNc3nnc(-c4cccc(Cl)c4O)cc3N1C[C@H](Oc1cnc(CN3CCC(c4ccc5c(c4)C(=O)N([C@H]4CCC(=O)NC4=O)C5)CC3)c(Cl)c1)C2` [Example 99, (S)-3-(6-(1-((3-chloro-5-(((6aS,8R)-2-(3-chloro-2-hydroxyphenyl)-6a-ethyl-5,6,6a,7,8,9-hexahydropyrrolo[1′,2′:4,5]pyrazino[2,3-c]pyridazin-8-yl)oxy)pyridin-2-yl)methyl)piperidin-4-yl)-1-oxoisoindolin-2-yl)piperidine-2,6-dione], the 50% degradation concentration (DC50) on SMARCA2 and at SMARCA4 was less than 100 nM throughout. Further, the Dmax is more than 75% at SMARCA2 and 50 to 75% on SMARCA4.
As to `CC[C@@]12CNc3nnc(-c4cccc(Cl)c4O)cc3N1C[C@H](Oc1cc(C)c(CN3CCC(c4ccc5c(c4)C(=O)N([C@H]4CCC(=O)NC4=O)C5)CC3)cn1)C2` [Example 100, (S)-3-(6-(1-((6-(((6aR,8R)-2-(3-chloro-2-hydroxyphenyl)-6a-ethyl-5,6,6a,7,8,9-hexahydropyrrolo[1′,2′:4,5]pyrazino[2,3-c]pyridazin-8-yl)oxy)-4-methylpyridin-3-yl)methyl)piperidin-4-yl)-1-oxoisoindolin-2-yl)piperidine-2,6-dione], at SMARCA2, the DC50 was less than 100 nM and the Dmax was more than 75%. At SMARCA4, the 50% degradation concentration (DC50) lay within 100 to 1000 nM and the Dmax is less than 50%.
On SMARCA2, `CC[C@@]12CNc3nnc(-c4cccc(F)c4O)cc3N1C[C@H](Oc1cnc(CN3CCC(c4ccc5c(c4)C(=O)N([C@H]4CCC(=O)NC4=O)C5)CC3)c(F)c1)C2` [Example 101, (S)-3-(6-(1-((5-(((6aR,8R)-6a-ethyl-2-(3-fluoro-2-hydroxyphenyl)-5,6,6a,7,8,9-hexahydropyrrolo[1′,2′:4,5]pyrazino[2,3-c]pyridazin-8-yl)oxy)-3-fluoropyridin-2-yl)methyl)piperidin-4-yl)-1-oxoisoindolin-2-yl)piperidine-2,6-dione] displayed a DC50 of less than 100 nM and a Dmax of more than 75%. On SMARCA4, the DC50 was 100 to 1000 nM and the maximal degradation (Dmax) is less than 50%.
Consider `CC[C@@]12CNc3nnc(-c4cccc(F)c4O)cc3N1C[C@H](Oc1nc(C)c(CN3CCC(c4ccc5c(c4)C(=O)N([C@H]4CCC(=O)NC4=O)C5)CC3)c(C)n1)C2` [Example 102, (S)-3-(6-(1-((2-(((6aR,8R)-6a-ethyl-2-(3-fluoro-2-hydroxyphenyl)-5,6,6a,7,8,9-hexahydropyrrolo[1′,2′:4,5]pyrazino[2,3-c]pyridazin-8-yl)oxy)-4,6-dimethylpyrimidin-5-yl)methyl)piperidin-4-yl)-1-oxoisoindolin-2-yl)piperidine-2,6-dione], for which, on SMARCA2, the DC50 was less than 100 nM and the Dmax is more than 75%. For the same molecule, on SMARCA4, the DC50 was more than 1000 nM and the Dmax was less than 50%.
For `CC[C@]12CNc3nnc(-c4cccc(F)c4O)cc3N1C[C@H](Oc1cnc(CN3CCC(c4ccc5c(c4)C(=O)N([C@H]4CCC(=O)NC4=O)C5)CC3)cn1)C2` [Example 103, (S)-3-(6-(1-((5-(((6aS,8R)-6a-ethyl-2-(3-fluoro-2-hydroxyphenyl)-5,6,6a,7,8,9-hexahydropyrrolo[1′,2′:4,5]pyrazino[2,3-c]pyridazin-8-yl)oxy)pyrazin-2-yl)methyl)piperidin-4-yl)-1-oxoisoindolin-2-yl)piperidine-2,6-dione], on SMARCA2, the DC50 was less than 100 nM and the maximal degradation (Dmax) was more than 75%. On SMARCA4, this molecule registered a DC50 of less than 100 nM and a Dmax of 50 to 75%.
At SMARCA2, `CC[C@]12CNc3nnc(-c4cccc(F)c4O)cc3N1C[C@H](Oc1cnc(CN3CCC(c4ccc5c(c4)C(=O)N([C@H]4CCC(=O)NC4=O)C5)CC3)c(C)c1)C2` [Example 104, (S)-3-(6-(1-((5-(((6aS,8R)-6a-ethyl-2-(3-fluoro-2-hydroxyphenyl)-5,6,6a,7,8,9-hexahydropyrrolo[1′,2′:4,5]pyrazino[2,3-c]pyridazin-8-yl)oxy)-3-methylpyridin-2-yl)methyl)piperidin-4-yl)-1-oxoisoindolin-2-yl)piperidine-2,6-dione] gave a DC50 of less than 100 nM and a Dmax of more than 75%. For the same molecule, at SMARCA4, the DC50 was less than 100 nM and the Dmax was 50 to 75%.
For `CC[C@@]12CNc3nnc(-c4cccc(F)c4O)cc3N1C[C@H](Oc1ncc(CN3CCC(c4ccc5c(c4)C(=O)N([C@H]4CCC(=O)NC4=O)C5)CC3)c(C)n1)C2` [Example 105, (S)-3-(6-(1-((2-(((6aR,8R)-6a-ethyl-2-(3-fluoro-2-hydroxyphenyl)-5,6,6a, 7,8,9-hexahydropyrrolo[1′,2′:4,5]pyrazino[2,3-c]pyridazin-8-yl)oxy)-4-methylpyrimidin-5-yl)methyl)piperidin-4-yl)-1-oxoisoindolin-2-yl)piperidine-2,6-dione], on SMARCA2, the DC50 is less than 100 nM and the Dmax was more than 75%. At SMARCA4, this molecule returned a DC50 of 100 to 1000 nM and a Dmax of less than 50%.
The corresponding values for `CC[C@@]12CNc3nnc(-c4cccc(F)c4O)cc3N1C[C@H](Oc1cc(C)c(CN3CCC(c4ccc5c(c4)C(=O)N(C4CCC(=O)NC4=O)C5)CC3)cn1)C2` (stereo partly drawn) [Example 106, 3-(6-(1-((6-(((6aR,8R)-6a-ethyl-2-(3-fluoro-2-hydroxyphenyl)-5,6,6a,7,8,9-hexahydropyrrolo[1′,2′:4,5]pyrazino[2,3-c]pyridazin-8-yl)oxy)-4-methylpyridin-3-yl)methyl)piperidin-4-yl)-1-oxoisoindolin-2-yl)piperidine-2,6-dione] are less than 100 nM, more than 75%, 100 to 1000 nM and less than 50%.
As to `O=C(/C=C/N1C[C@H]2C[C@@H]1CN2c1ccccn1)c1ccccc1O` [PFI-3], the “effects on cell proliferation inhibition” value in test [1] is given as “none to minor effects”.
